Among the test systems are 786-0; BT-549; EKVX; HCT-116; HOP-92; MDA-MB-435; NCI-H23; OVCAR-4; PC-3; RPMI-8226; SK-MEL-5; SK-OV-3; SNB-75; SW-620; UACC-62; CAKI-1; T47D; TK-10; NCI-H460.
What all share (assay): NCI anticancer screen, dose series, 48 h

SMILES strings stand for the structures.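 48-hour exposure; five concentrations; linearly interpolated endpoints. GI50 is the concentration that inhibits growth by half.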 Activity calls are given as the source filed them. Cut-off read from the data, not from the text of the source: active = GI50 up to about 1.1 µM and inactive = higher. A value given as a limit tells only on which side of the number the result lay.

As for `Clc1ccccc1NN(Cc1ccncc1)c1ccccc1Cl`, the GI50 in the test with 786-0 was 13.7 µM (inactive); in the test with BT-549 it was 19.1 µM (inactive); with EKVX, 14 µM (inactive); in the test on HCT-116, 13 µM (inactive); in the test on HOP-92, 4.6 µM (inactive); with MDA-MB-435, 15.2 µM (inactive). In addition, the GI50 was 15.6 µM (inactive) with NCI-H23; 11.1 µM (inactive) with OVCAR-4; 15 µM (inactive) with PC-3; 10.8 µM (inactive) in the test with RPMI-8226; 13.9 µM (inactive) in the test on SK-MEL-5; 28.1 µM (inactive) in the test with SK-OV-3. The results for the GI50 with SNB-75, in the test on SW-620 and in the test on UACC-62 were 17.5 µM (inactive), 16.9 µM (inactive) and 13.2 µM (inactive), respectively.

As to `O=C(Nc1nc2ccc([N+](=O)[O-])cc2s1)c1cc([N+](=O)[O-])ccc1Cl`, the GI50 in the test with 786-0 is 2.75 µM (inactive); in the test on BT-549, 2.24 µM (inactive); in the test with CAKI-1, 4.51 µM (inactive); in the test on EKVX, 2.81 µM (inactive); in the test with HCT-116 it was 1.71 µM (inactive); in the test on HOP-92, 0.675 µM (active). Moreover, the GI50 is 4.04 µM (inactive) in the test with MDA-MB-435; 2.3 µM (inactive) in the test with NCI-H23; 5.27 µM (inactive) in the test on OVCAR-4; 0.989 µM (active) with RPMI-8226; 1.41 µM (inactive) in the test on SK-MEL-5; 2.94 µM (inactive) with SK-OV-3. The GI50 with SNB-75 is 2.22 µM (inactive); with SW-620, 2.29 µM (inactive); in the test with T47D, 3.57 µM (inactive); in the test with TK-10, 3.8 µM (inactive).

In the case of `Nc1nc(Cl)c(CO)c(NCC2(CO)CCC2)n1`, the GI50 in the test on 786-0, in the test with BT-549, in the test on CAKI-1, in the test with EKVX, in the test on HCT-116 and in the test with HOP-92 was > 100 µM (inactive) in each case. Also, the GI50 was > 100 µM (inactive) in the test with MDA-MB-435; 41.9 µM (inactive) in the test with NCI-H23; > 100 µM (inactive) in the test with NCI-H460; > 100 µM (inactive) with OVCAR-4; 88.7 µM (inactive) with PC-3; > 100 µM (inactive) in the test on RPMI-8226. Also, the GI50 with SK-MEL-5, in the test with SNB-75, in the test on SW-620 and in the test on TK-10 was > 100 µM (inactive) each time.

Take `COc1ccccc1[S+]([O-])Nc1ccccc1` (stereo unspecified): the GI50 in the test with 786-0 was > 100 µM (inactive); in the test with BT-549, 17.4 µM (inactive); in the test on EKVX it was > 100 µM (inactive); in the test with HCT-116 it was 51.1 µM (inactive); with MDA-MB-435 it was 31 µM (inactive); in the test with NCI-H23 it was > 100 µM (inactive). The GI50 in the test with NCI-H460 is 88.1 µM (inactive); in the test with OVCAR-4 it was > 100 µM (inactive); in the test on RPMI-8226, 72.9 µM (inactive); with SK-MEL-5, 25.5 µM (inactive); in the test on SW-620 it was 30.7 µM (inactive); with T47D, 11.9 µM (inactive). Also, the GI50 with TK-10 was > 100 µM (inactive); in the test with UACC-62, 10.7 µM (inactive).

As to `O=C(C[C@@H]1CCCN2CCCC[C@H]12)N1c2ccccc2Sc2ccc(Cl)cc21`, the GI50 in the test on 786-0 was 11.1 µM (inactive); with BT-549, 14.7 µM (inactive); in the test on CAKI-1, 14.4 µM (inactive); with EKVX, 19.1 µM (inactive); in the test on HCT-116, 16 µM (inactive); with MDA-MB-435, 14.5 µM (inactive). Besides, the GI50 in the test on NCI-H23 was 14.7 µM (inactive); with NCI-H460 it was 14.7 µM (inactive); with PC-3 it was 13.2 µM (inactive); in the test with RPMI-8226, 20.2 µM (inactive); in the test with SK-MEL-5, 11.7 µM (inactive); in the test with SNB-75, 13.8 µM (inactive). The values for the GI50 in the test with SW-620, with T47D and with TK-10 were 13.9 µM (inactive), 20.5 µM (inactive) and 20 µM (inactive), respectively.

As for `CC1(C)CC(=O)C(=CNC(N)=S)C(=O)C1`, the GI50 in the test on 786-0, in the test on BT-549, with CAKI-1, with EKVX, in the test on HCT-116 and with HOP-92 was > 100 µM (inactive) in each case. Also, the GI50 with MDA-MB-435, in the test with NCI-H23, in the test on NCI-H460, in the test on OVCAR-4, in the test on PC-3 and in the test with SK-MEL-5 was > 100 µM (inactive) each time. For the same compound, the GI50 in the test with SK-OV-3, in the test on SNB-75, with SW-620, in the test with TK-10 and in the test on UACC-62 was > 100 µM (inactive) in each case.

For `COc1cc(Br)cc2c1O[C@H]1C(=O)CC3CC21CCN3C` (stereo partly specified), the GI50 in the test on 786-0 was 51.6 µM (inactive); in the test on BT-549 it was 48.4 µM (inactive); in the test on CAKI-1, 74.1 µM (inactive); in the test with EKVX it was 61 µM (inactive); with HCT-116 it was 42 µM (inactive); with MDA-MB-435, 52.2 µM (inactive). Moreover, the GI50 in the test on NCI-H23 was 24.3 µM (inactive); in the test with PC-3, 64 µM (inactive); in the test on RPMI-8226, 21.8 µM (inactive); in the test on SK-MEL-5 it was > 100 µM (inactive); in the test on SK-OV-3 it was > 100 µM (inactive); in the test with SW-620 it was 30.5 µM (inactive). The GI50 was 23.2 µM (inactive) in the test with T47D and > 100 µM (inactive) with UACC-62.

Take `CC(=O)NC1(c2cc3ccccc3s2)CCCCCC1`: the GI50 was 34.7 µM (inactive) in the test with 786-0; 58.9 µM (inactive) in the test with BT-549; 52.6 µM (inactive) in the test with CAKI-1; 19.1 µM (inactive) in the test on EKVX; 35.3 µM (inactive) in the test with HCT-116; 59.3 µM (inactive) in the test on HOP-92. For the same compound, the GI50 with MDA-MB-435 is 35.5 µM (inactive); in the test with NCI-H23, 35.2 µM (inactive); with NCI-H460, 36.6 µM (inactive); in the test on OVCAR-4, 38.5 µM (inactive); in the test on PC-3, 27.4 µM (inactive); in the test with SK-MEL-5, 27.1 µM (inactive). The GI50 with SK-OV-3 is 37.1 µM (inactive); in the test with SNB-75 it was 31 µM (inactive); in the test on SW-620, 47.1 µM (inactive); with TK-10, 47.5 µM (inactive); with UACC-62, 31.3 µM (inactive).

As for `CCOC(=O)NC(=S)c1ccc(O)c2ccccc12`, the GI50 in the test on 786-0 is > 100 µM (inactive); in the test with BT-549 it was 23 µM (inactive); with CAKI-1, 44.2 µM (inactive); with EKVX it was 27.9 µM (inactive); in the test with HCT-116, 84.7 µM (inactive); in the test with MDA-MB-435, 40.7 µM (inactive). In addition, the GI50 in the test on NCI-H23 is 55.5 µM (inactive); with NCI-H460 it was 38.8 µM (inactive); with OVCAR-4, > 100 µM (inactive); with PC-3, > 100 µM (inactive); in the test on RPMI-8226, 74.5 µM (inactive); in the test on SK-MEL-5, 42.8 µM (inactive). Further, the GI50 was 45.1 µM (inactive) with SK-OV-3, 51.6 µM (inactive) with SW-620, > 100 µM (inactive) in the test on T47D and 68.1 µM (inactive) in the test on UACC-62.

Consider `O=C(O)c1ccc(Nc2nc3ccccc3nc2C(=O)O)cc1`, for which the GI50 in the test on 786-0, in the test on BT-549, in the test on CAKI-1, in the test on EKVX, with HCT-116 and in the test with HOP-92 was > 100 µM (inactive) each time. Also, the GI50 with MDA-MB-435, in the test with NCI-H23, in the test with NCI-H460, in the test on OVCAR-4, in the test with RPMI-8226 and with SK-MEL-5 was > 100 µM (inactive) in each case. Further, the GI50 in the test on SK-OV-3, with SNB-75, in the test on T47D, in the test on TK-10 and with UACC-62 was > 100 µM (inactive) each time.

As for `O=c1[nH]nc(Cc2ccccc2)n1-n1cnnc1`, the GI50 with 786-0, with BT-549, in the test on EKVX, with HCT-116, with HOP-92 and in the test with MDA-MB-435 was > 100 µM (inactive) throughout. Also, the GI50 with NCI-H23, in the test with OVCAR-4, in the test with PC-3, in the test on RPMI-8226, with SK-MEL-5 and with SK-OV-3 was > 100 µM (inactive) throughout. Besides, the GI50 in the test on SNB-75, in the test with SW-620, with TK-10 and in the test with UACC-62 was > 100 µM (inactive) throughout.

Regarding `CC(=O)CCn1c(=S)sc2ccccc21`, the GI50 in the test on 786-0 was > 100 µM (inactive); in the test on BT-549, > 100 µM (inactive); in the test on CAKI-1, 49.7 µM (inactive); with EKVX, > 100 µM (inactive); with HCT-116, > 100 µM (inactive); with HOP-92, > 100 µM (inactive). Also, the GI50 in the test on MDA-MB-435 is > 100 µM (inactive); with NCI-H23, > 100 µM (inactive); in the test on NCI-H460, > 100 µM (inactive); in the test with OVCAR-4, > 100 µM (inactive); with PC-3, > 100 µM (inactive); with SK-MEL-5, 56.8 µM (inactive). For the same compound, the GI50 with SK-OV-3 was 86.9 µM (inactive); in the test on SNB-75 it was > 100 µM (inactive); with SW-620 it was > 100 µM (inactive); in the test with TK-10, > 100 µM (inactive); in the test on UACC-62, > 100 µM (inactive).

As for `N#C[BH2-][n+]1ccc(C(=O)NNC(c2ccccc2)C(F)(F)F)cc1` (stereo unspecified), the GI50 is > 100 µM (inactive) with 786-0; > 100 µM (inactive) in the test with BT-549; > 100 µM (inactive) with CAKI-1; > 100 µM (inactive) in the test with EKVX; > 100 µM (inactive) in the test with HCT-116; 1 µM (active) in the test on HOP-92. Moreover, the GI50 in the test on MDA-MB-435 was > 100 µM (inactive); with NCI-H23 it was 31.7 µM (inactive); in the test with NCI-H460, > 100 µM (inactive); in the test on OVCAR-4, > 100 µM (inactive); in the test on PC-3, > 100 µM (inactive); with RPMI-8226 it was > 100 µM (inactive). Also, the GI50 with SK-MEL-5, with SNB-75, with SW-620 and with TK-10 was > 100 µM (inactive) in each case.

Source of the values: ChEMBL document CHEMBL1201862, “PubChem BioAssay data set” (2004).
